Results from ChEMBL document CHEMBL3526133, “Identifying a selective substrate and inhibitor pair for the evaluation of CYP2J2 activity” (Drug Metab Dispos, 2012).

Experiments:
CYP2J2 [1] = target: T1, CYP2J2 (Homo sapiens, UniProt P51589); assay: in vitro
T1 sequence (P51589 whole entry): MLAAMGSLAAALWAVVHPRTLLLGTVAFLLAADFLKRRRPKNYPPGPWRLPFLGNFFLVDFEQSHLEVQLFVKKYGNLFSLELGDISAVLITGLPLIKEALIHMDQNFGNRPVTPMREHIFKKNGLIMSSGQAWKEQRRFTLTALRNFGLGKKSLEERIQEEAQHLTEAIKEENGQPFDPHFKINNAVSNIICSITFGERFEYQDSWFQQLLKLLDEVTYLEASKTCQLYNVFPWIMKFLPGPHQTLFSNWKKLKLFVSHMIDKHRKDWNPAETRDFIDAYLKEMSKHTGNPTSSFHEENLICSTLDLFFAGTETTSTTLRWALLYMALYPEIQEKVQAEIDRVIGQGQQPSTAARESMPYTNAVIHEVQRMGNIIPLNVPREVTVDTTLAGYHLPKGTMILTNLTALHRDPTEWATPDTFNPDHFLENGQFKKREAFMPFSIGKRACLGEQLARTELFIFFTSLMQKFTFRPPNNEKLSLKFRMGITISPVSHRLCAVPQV

CYP2J2 [2] = target: T1, CYP2J2; assay: in vitro; remark: listed apart in the source
Cytochrome P450 2C8 = target: T2, Cytochrome P450 2C8 (Homo sapiens, UniProt P10632)
T2 sequence (P10632 whole entry): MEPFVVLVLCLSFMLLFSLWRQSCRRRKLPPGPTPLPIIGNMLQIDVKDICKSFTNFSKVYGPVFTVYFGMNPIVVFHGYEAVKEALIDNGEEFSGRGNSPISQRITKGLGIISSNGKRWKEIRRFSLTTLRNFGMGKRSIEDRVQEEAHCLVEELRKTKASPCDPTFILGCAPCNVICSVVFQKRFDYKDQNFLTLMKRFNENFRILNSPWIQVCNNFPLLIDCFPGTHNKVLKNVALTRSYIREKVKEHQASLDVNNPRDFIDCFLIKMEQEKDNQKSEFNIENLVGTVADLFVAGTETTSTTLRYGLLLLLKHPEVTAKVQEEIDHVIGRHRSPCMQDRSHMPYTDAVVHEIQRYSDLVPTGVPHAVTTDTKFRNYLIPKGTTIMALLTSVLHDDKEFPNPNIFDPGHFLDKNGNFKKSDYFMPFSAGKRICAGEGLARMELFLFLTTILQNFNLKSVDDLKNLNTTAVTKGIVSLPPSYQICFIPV

[3] = recombinant CYP2J2, probe terfenadine (hydroxylation)
[4] = recombinant CYP2J2, probe astemizole (O-demethylation)

Row | Compound | activity at 5 min, 30 µM (CYP2J2 [1]; [3]) | activity at 5 min, 30 µM (CYP2J2 [2]; [4]) | IC50 (Cytochrome P450 2C8) | activity at 5 min, 30 µM (CYP2J2 [1]; recombinant enzyme) | activity at 5 min, 30 µM (CYP2J2 [2]; recombinant enzyme)
1 | CCOC(=O)[C@H](CCc1ccccc1)N[C@@H](C)C(=O)N1Cc2ccccc2C[C@H]1C(=O)O | 51.4% | 64.1% |  |  | 
2 | O[C@@H](c1cc(C(F)(F)F)nc2c(C(F)(F)F)cccc12)[C@H]1CCCCN1 (relative stereo) [(S,R)-MEFLOQUINE] | 22.4% | 44.6% | > 30 µM |  | 
3 | CCN(CC)Cc1cc(Nc2ccnc3cc(Cl)ccc23)ccc1O [AMODIAQUINE] | 22.5% | 7.7% |  |  | 
4 | CCCC1O[C@@H]2C[C@H]3[C@@H]4CCC5=CC(=O)C=C[C@]5(C)[C@H]4[C@@H](O)C[C@]3(C)[C@]2(C(=O)CO)O1 (some centres not stated) [BUDESONIDE] | 50.8% |  |  |  | 
5 | CCN(CC)CCOc1ccc(C(=C(Cl)c2ccccc2)c2ccccc2)cc1 [CLOMIPHENE] | 44.2% | 109% |  |  | 
6 | CN(C)CCC=C1c2ccccc2C=Cc2ccccc21 [CYCLOBENZAPRINE] |  |  |  | 48.9% | 65.9%
7 | O=c1[nH]c2ccccc2n1CCCN1CCC(n2c(=O)[nH]c3cc(Cl)ccc32)CC1 [DOMPERIDONE] | 43.5% | 50.5% |  |  | 
8 | CNCCC(Oc1ccc(C(F)(F)F)cc1)c1ccccc1 (configuration not stated) [FLUOXETINE] |  |  |  | 44.3% | 87%
9 | COCCCC/C(=N\OCCN)c1ccc(C(F)(F)F)cc1 [FLUVOXAMINE] | 48.7% | 54.4% |  |  | 
10 | O=C(CCCN1CCC(O)(c2ccc(Cl)cc2)CC1)c1ccc(F)cc1 [HALOPERIDOL] | 15.6% | 14.7% |  |  | 
11 | CC(=O)N1CCN(c2ccc(OCC3COC(Cn4ccnc4)(c4ccc(Cl)cc4Cl)O3)cc2)CC1 (configuration not stated) [KETOCONAZOLE] | 5.8% | 5.4% |  |  | 
12 | CCOC(=O)N1CCC(=C2c3ccc(Cl)cc3CCc3cccnc32)CC1 [LORATADINE] |  |  | 2.95 µM | 11.4% | 4%
13 | CC[C@H](C)C(=O)O[C@H]1C[C@@H](C)C=C2C=C[C@H](C)[C@H](CC[C@@H]3C[C@@H](O)CC(=O)O3)[C@H]21 [LOVASTATIN] | 37.7% | 13.6% |  |  | 
14 | CCC(=O)C(CC(C)N(C)C)(c1ccccc1)c1ccccc1 (configuration not stated) [METHADONE] | 43% | 123% |  |  | 
15 | Clc1ccc(COC(Cn2ccnc2)c2ccc(Cl)cc2Cl)c(Cl)c1 (configuration not stated) [MICONAZOLE] | 3.4% | 10.1% |  |  | 
16 | COC(=O)C1=C(C)NC(C)=C(C(=O)OCCN(C)Cc2ccccc2)C1c1cccc([N+](=O)[O-])c1 (configuration not stated) [NICARDIPINE] |  |  |  | 8.9% | 5.8%
17 | CNCCC=C1c2ccccc2CCc2ccccc21 [NORTRIPTYLINE] |  |  |  | 45.3% | 70.1%
18 | COc1ccc2[nH]c([S+]([O-])Cc3ncc(C)c(OC)c3C)nc2c1 (configuration not stated) [OMEPRAZOLE] | 46.1% | 70.5% |  |  | 
19 | CC/C(=C(\c1ccccc1)c1ccc(OCCN(C)C)cc1)c1ccccc1 [TAMOXIFEN] | 11.5% | 9.1% | 14.3 µM |  | 
20 | CSc1ccc2c(c1)N(CCC1CCCCN1C)c1ccccc1S2 (configuration not stated) [THIORIDAZINE] | 51.7% | 12.9% |  |  | 
